This data set relates to mice. As to the kind of experiment: Acute toxicity in oral administration to mice. The class given is in vivo. An excerpt:
The results of tests for an acute toxicity of the thus-obtained desired product when administered orally to mice are shown in the Table hereinbelow.
The results of tests of the thus-obtained desired product for an acute toxicity in oral administration to mice are shown in the Table hereinbelow.
Acute toxicity of 2,2'-di-(1,6,7-trihydroxy-3-methyl-
5-isopropyl-8-naphthaldehyde) in oral administration
In the case of `Cc1cc2c(C(C)C)c(O)c(O)c(C=O)c2c(O)c1-c1c(C)cc2c(C(C)C)c(O)c(O)c(C=O)c2c1O` [Example 1, 2,2'-di-(1,6,7-trihydroxy-3-methyl-5-isopropyl-8-naphthaldehyde)], the LD50 is 640 (450-768) mg/kg.

Regarding `Cc1cc2c(C(C)C)c(O)c(O)c(C=O)c2c(O)c1-c1c(C)cc2c(C(C)C)c(O)c(O)c(C=O)c2c1O` [Example 2, 2,2'-di-(1,6,7-trihydroxy-3-methyl-5-isopropyl-8-naphthaldehyde)], the LD50 result was “over 1,500 mg/kg”.

Regarding `Cc1cc2c(C(C)C)c(O)c(O)c(C=O)c2c(O)c1-c1c(C)cc2c(C(C)C)c(O)c(O)c(C=O)c2c1O` [Example 3, 2,2'-di-(1,6,7-trihydroxy-3-methyl-5-isopropyl-8-naphthaldehyde)], the LD50 was 750 (646-870) mg/kg.

On to `Cc1cc2c(C(C)C)c(O)c(O)c(C=O)c2c(O)c1-c1c(C)cc2c(C(C)C)c(O)c(O)c(C=O)c2c1O` [known preparation, 2,2'-di-(1,6,7-trihydroxy-3-methyl-5-isopropyl-8-naphthaldehyde), reference compound], for which the LD50 is on record as 383 (340-426) mg/kg.

The values are drawn from US5059717A, “Method for purification of 2,2'-di(1,6,7-trihydroxy-3-methyl-5-isopropyl-8-naphthaldehyde)” (priority 1990, dated 1991).
